2 compounds from patent US20230190779A1, “Agent for Improving Symptoms of Menopause” (Kao Corporation, priority 2020, published 2023) can be followed below.

SMILES strings stand for the structures.

The test concerns the target T1, human TRPV4 (Homo sapiens, UniProt Q9HBA0).
T1 construct: expressed in transfected cells; host or cells: HeLa cells (human cervical cancer-derived, ATCC), transient transfection
The experiment in a line: Suppression of TRPV4 activity: intracellular calcium ion influx in human TRPV4 expression HeLa cells stimulated with GSK1016790a. Type of test: cell-based. To be noted: GSK + solvent = 100%, n = 3, Mean ± SE. The protocol: Using a primer set consisting of oligonucleotides represented by the base sequences described below which was synthesized with reference to the published human TRPV4 gene sequence using cDNA obtained by reverse transcribing the total RNA extracted from human duodenum-derived cells (Hutu-80 cells, purchased from American Type Culture Collection) as a template, the polymerase chain reaction (PCR) was carried out under the following conditions.
The obtained PCR product was purified using a High Pure PCR Product Purification Kit (manufactured by Roche). Using the purified PCR product and pcDNA3.1 Directional TOPO Expression Kit (manufactured by Invitrogen), a human TRPV4 gene expression vector was produced.
A human cervical cancer-derived cell line (HeLa cells, purchased from American Type Culture Collection) was cultured using a DMEM/F12 medium containing 10% fetal bovine serum (manufactured by Invitrogen). HeLa cells were seeded in a 10 cm cell culture dish at 2×10^5 cells/dish. After culturing for 2 days, the cells were transfected with the human TRPV4 gene expression vector (7.7 lag) produced in the above (1) using TransIT-HeLaMONSTER Transfection Kit (manufactured by Mirus) and cultured for 1 day.
The cells were detached using Detachin (manufactured. by Genlantis Inc.), seeded in a DMEM/F12 medium containing 10% fetal bovine serum on a 96 well Optical bottom plate (manufactured by Nunc A/S) at a cell density of 2.0×10^4 cells/90 μL/well, and further cultured for 1 day.
Measurement of the intracellular calcium ion influx activity was carried out using Calcium Kit II-fluo 4 (trade name, DOJTNDO). 90 μL/well of a loading buffer containing Fluo4-AM was added to the human TRPV4 expression cells produced in the above (2), and incubated at 37° C. for 1 hour. Thereafter, the fluorescence intensity (excitation wavelength: 488 nm, fluorescence wavelength: 524 nm) was measured at 37° C. every two seconds using a fluorescence plate reader (FDSS/μCFLL Functional Drug Screening System C13299, manufactured by Hamamatsu Photonics K. K.). After 30 seconds from the start of the measurement, each of GSK1016790a (manufactured by Sigma) which is the TRPV4 agonist, and the cassis extract, or D3R, C3R, D3G, or C3G prepared in the above Production Example as the sample was diluted with a dilution buffer of the measurement kit, 20 μL/well of a mixed solution thereof (mixed immediately before addition) was added, and the change of fluorescence intensity was measured every two seconds until 300 seconds. […]
The TRPV4 activity of the sample was calculated by the following equation assuming that the calcium ion influx rate by the treatment of GSK1016790a which is the TRPV4 agonist was 100%. […]

T1 sequence (Q9HBA0 whole entry): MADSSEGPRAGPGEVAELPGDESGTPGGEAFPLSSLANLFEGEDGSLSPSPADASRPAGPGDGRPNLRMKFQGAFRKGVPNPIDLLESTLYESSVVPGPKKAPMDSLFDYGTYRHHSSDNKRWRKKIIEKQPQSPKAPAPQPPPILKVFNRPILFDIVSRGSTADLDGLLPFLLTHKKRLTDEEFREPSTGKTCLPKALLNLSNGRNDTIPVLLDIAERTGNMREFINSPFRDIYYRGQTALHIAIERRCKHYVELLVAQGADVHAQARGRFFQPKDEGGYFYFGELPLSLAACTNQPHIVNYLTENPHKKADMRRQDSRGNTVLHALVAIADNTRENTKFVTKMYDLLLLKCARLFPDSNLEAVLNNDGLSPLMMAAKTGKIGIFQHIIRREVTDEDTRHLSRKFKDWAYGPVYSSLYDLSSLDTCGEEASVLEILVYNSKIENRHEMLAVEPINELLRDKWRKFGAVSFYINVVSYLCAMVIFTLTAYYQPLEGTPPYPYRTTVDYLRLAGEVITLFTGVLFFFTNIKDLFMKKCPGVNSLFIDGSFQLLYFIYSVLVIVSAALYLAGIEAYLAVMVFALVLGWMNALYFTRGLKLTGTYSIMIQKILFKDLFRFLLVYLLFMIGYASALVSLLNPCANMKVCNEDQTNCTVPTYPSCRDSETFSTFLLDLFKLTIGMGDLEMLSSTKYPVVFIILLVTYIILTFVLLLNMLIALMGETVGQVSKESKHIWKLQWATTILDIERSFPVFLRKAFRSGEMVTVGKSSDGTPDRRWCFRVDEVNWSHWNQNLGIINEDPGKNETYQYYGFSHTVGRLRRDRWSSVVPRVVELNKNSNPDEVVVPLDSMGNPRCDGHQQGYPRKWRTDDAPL

Consider `OC[C@H]1O[C@@H](Oc2cc3c(O)cc(O)cc3[o+]c2-c2ccc(O)c(O)c2)[C@H](O)[C@@H](O)[C@@H]1O` [C3G, cyanidin-3-glucoside, reference compound], for which the “Intracellular Ca^2+ increase rate (%)” value came out at 94.4 ± 3.1% (sample 0.05 μg/mL + GSK 10 nM) and 101.5 ± 4.1% (sample 0.5 μg/mL + GSK 10 nM).

As to `OC[C@H]1O[C@@H](Oc2cc3c(O)cc(O)cc3[o+]c2-c2cc(O)c(O)c(O)c2)[C@H](O)[C@@H](O)[C@@H]1O` [D3G, delphinidin-3-glucoside, reference compound], the “Intracellular Ca^2+ increase rate (%)” value runs as follows: (sample 0.14 μg/mL + GSK 10 nM) 101.4 ± 2.7%; (sample 1.4 μg/mL + GSK 10 nM) 100.4 ± 3.2%.
